Laboratory results as given in patent publication US20060009432A1, “Use of neurosteroids to treat neuropathic pain” (priority 2004, published 2006).

Assays:
[1] = system: chronic constriction injury (CCI) of the sciatic nerve, rats; experiment: Cold allodynia (acetone application) in chronic constriction injury model; type: in vivo, rat; settings: for Average time to withdrawal (s.e.m.): CCI rats
Protocol: Unilateral sciatic nerve injury was produced under deep anesthesia with i.p injection of sodium pentobarbital (Mebumal, 60 mg/kg), as described by Bennett and Xie (Pain, 33, 87-107(1988)). The common sciatic nerve was exposed and freed for about 10 mm at mid-thigh level. Four ligatures (Ethicon, 4.0 plain gut) were tied loosely around the nerve with about 1-mm spacing creating a chronic constriction injury (CCl), and the incision was closed.
Brisk foot withdrawal in response to acetone application was measured based on the method described by Choi et al. The acetone bubble was gently brought in touch with the plantar surface around the center, and the acetone quickly spread over the central part of the plantar surface of the foot. Applications were made five times (once every 5 min) to each paw. The score for each application was recorded as follows: foot withdrawal was scored as positive (1) and lack of withdrawal as negative (O). The total score (0 to 5) was taken as index for cold sensitivity of the foot […]. This approximates pain from a non-noxious stimulus, i.e. allodynia.
Cold allodynia response was measured 15, 30, 45, 60, 90 and 120 minutes after i.p. administration of ganaxolone (at 1 mg/kg, 3 mg/kg or 10 mg/kg) as well as prior to administration of the neurosteroid and prior to infliction of the neural injury. Table 1 provides the resulting measurement of cold allodynia response in groups of six rats per dosage level. The abbreviation “s.e.m.” means standard error mean.

SNL rats = experiment: Thermal withdrawal (Hargreaves) in spinal nerve ligation model; type: in vivo, rat
Protocol: (§1) (A) L5/L6 spinal nerve ligation (SNL) was performed as described by Kim and Chung (Pain, 50,355-363(1992)). Animals (mice or rats) were anesthetized with halothane. An incision was made lateral to the lumbar spine. The right L5 and L6 spinal nerves were isolated and tightly ligated distal to the dorsal root ganglion. The incision was closed, and animals were allowed to recover for 10 days. Sham-operated animals were prepared in an identical fashion except that the spinal nerves were not ligated.
(§2) (B) The method of Hargreaves et al. (Pain, 32, 77-88 (1988)) was used to measure the thermal withdrawal latency in SNL rats. Animals were acclimated within Plexiglas enclosures on a clear glass plate maintained at 30° C. A radiant heat source (high-intensity projector lamp) was focused onto the plantar surface of the paw. When the paw was withdrawn, a motion detector halted the stimulus and a timer. A maximal cut-off of 40 sec for rats and 30 sec for mice was used to prevent tissue damage. Differences in responses between groups were tested by using the standard ANOVA statistical test followed by post hoc testing with Student's t test with Bonferroni's correction. Significance was defined as P<0.05.
Thermal withdrawal response was measured 15, 30, 45, 60, 90 and 120 minutes after i.p. administration of ganaxolone (at 1 mg/kg, 3 mg/kg, 6 mg/kg or 10 mg/kg). Table 3 provides the resulting measurement of thermal withdrawal in groups of five rats per dosage level.

[2] = system: rats receiving sham surgery; experiment: Thermal withdrawal in rats receiving sham surgery; type: in vivo, rat
Protocol: as §1, §2
The thermal withdrawal response was measured using the same protocol in rats receiving sham surgery. Table 4 provides the resulting measurement of thermal withdrawal in groups of five rats per dose level.

migraine = settings: phase 2 clinical trial for migraine; cited from earlier work

## CC(=O)[C@H]1CC[C@H]2[C@@H]3CC[C@H]4C[C@](C)(O)CC[C@]4(C)[C@H]3CC[C@]12C [ganaxolone, 3α-hydroxy-3β-methyl-5α-pregnan-20-one]
[1]; 1 mg/kg i.p., 15 min after administration
  Average time to withdrawal (s.e.m.): 7.40 (1.02)
[1]; 1 mg/kg i.p., 30 min after administration
  Average time to withdrawal (s.e.m.): 6.12 (1.72)
[1]; 1 mg/kg i.p., 45 min after administration
  Average time to withdrawal (s.e.m.): 5.07 (1.14)
[1]; 1 mg/kg i.p., 60 min after administration
  Average time to withdrawal (s.e.m.): 2.59 (0.47)
[1]; 1 mg/kg i.p., 90 min after administration
  Average time to withdrawal (s.e.m.): 3.66 (0.47)
[1]; 1 mg/kg i.p., 120 min after administration
  Average time to withdrawal (s.e.m.): 3.16 (0.26)
[1]; 3 mg/kg i.p., 15 min after administration
  Average time to withdrawal (s.e.m.): 6.77
[1]; 3 mg/kg i.p., 30 min after administration
  Average time to withdrawal (s.e.m.): 13.03
[1]; 3 mg/kg i.p., 45 min after administration
  Average time to withdrawal (s.e.m.): 11.12
[1]; 3 mg/kg i.p., 60 min after administration
  Average time to withdrawal (s.e.m.): 11.69
[1]; 3 mg/kg i.p., 90 min after administration
  Average time to withdrawal (s.e.m.): 10.26
[1]; 3 mg/kg i.p., 120 min after administration
  Average time to withdrawal (s.e.m.): 10.30
[1]; 10 mg/kg i.p., 15 min after administration
  Average time to withdrawal (s.e.m.): 13.86
[1]; 10 mg/kg i.p., 30 min after administration
  Average time to withdrawal (s.e.m.): 15.35
[1]; 10 mg/kg i.p., 45 min after administration
  Average time to withdrawal (s.e.m.): 13.34
[1]; 10 mg/kg i.p., 60 min after administration
  Average time to withdrawal (s.e.m.): 10.38
[1]; 10 mg/kg i.p., 90 min after administration
  Average time to withdrawal (s.e.m.): 8.59
[1]; 10 mg/kg i.p., 120 min after administration
  Average time to withdrawal (s.e.m.): 8.87
[1]; summary of Table 1, CCI rats
  Effect on average time to withdrawal: increases the average time to withdrawal
SNL rats; 1 mg/kg i.p., 15 min
  % Activity ± s.e.m. (thermal withdrawal): 24.59 ± 14.93%
SNL rats; 1 mg/kg i.p., 30 min
  % Activity ± s.e.m. (thermal withdrawal): 27.99 ± 17.71%
SNL rats; 1 mg/kg i.p., 45 min
  % Activity ± s.e.m. (thermal withdrawal): 3.98 ± 2.63%
SNL rats; 1 mg/kg i.p., 60 min
  % Activity ± s.e.m. (thermal withdrawal): 12.62 ± 8.69%
SNL rats; 1 mg/kg i.p., 90 min
  % Activity ± s.e.m. (thermal withdrawal): 17.40 ± 8.65%
SNL rats; 1 mg/kg i.p., 120 min
  % Activity ± s.e.m. (thermal withdrawal): 12.13 ± 9.25%
SNL rats; 3 mg/kg i.p., 15 min
  % Activity ± s.e.m. (thermal withdrawal): 37.15 ± 18.52%
SNL rats; 3 mg/kg i.p., 30 min
  % Activity ± s.e.m. (thermal withdrawal): 48.03 ± 22.45%
SNL rats; 3 mg/kg i.p., 45 min
  % Activity ± s.e.m. (thermal withdrawal): 19.84 ± 12.97%
SNL rats; 3 mg/kg i.p., 60 min
  % Activity ± s.e.m. (thermal withdrawal): 14.25 ± 10.87%
SNL rats; 3 mg/kg i.p., 90 min
  % Activity ± s.e.m. (thermal withdrawal): 4.18 ± 4.18%
SNL rats; 3 mg/kg i.p., 120 min
  % Activity ± s.e.m. (thermal withdrawal): 16.57 ± 11.76%
SNL rats; 6 mg/kg i.p., 15 min
  % Activity ± s.e.m. (thermal withdrawal): 79.03 ± 10.50%
SNL rats; 6 mg/kg i.p., 30 min
  % Activity ± s.e.m. (thermal withdrawal): 70.78 ± 11.53%
SNL rats; 6 mg/kg i.p., 45 min
  % Activity ± s.e.m. (thermal withdrawal): 43.72 ± 10.03%
SNL rats; 6 mg/kg i.p., 60 min
  % Activity ± s.e.m. (thermal withdrawal): 60.94 ± 10.27%
SNL rats; 6 mg/kg i.p., 90 min
  % Activity ± s.e.m. (thermal withdrawal): 42.83 ± 10.41%
SNL rats; 6 mg/kg i.p., 120 min
  % Activity ± s.e.m. (thermal withdrawal): 10.88 ± 6.34%
SNL rats; 10 mg/kg i.p., 15 min
  % Activity ± s.e.m. (thermal withdrawal): 70.07 ± 18.30%
SNL rats; 10 mg/kg i.p., 30 min
  % Activity ± s.e.m. (thermal withdrawal): 46.91 ± 14.25%
SNL rats; 10 mg/kg i.p., 45 min
  % Activity ± s.e.m. (thermal withdrawal): 47.36 ± 12.97%
SNL rats; 10 mg/kg i.p., 60 min
  % Activity ± s.e.m. (thermal withdrawal): 41.45 ± 10.90%
SNL rats; 10 mg/kg i.p., 90 min
  % Activity ± s.e.m. (thermal withdrawal): 33.58 ± 7.53%
SNL rats; 10 mg/kg i.p., 120 min
  % Activity ± s.e.m. (thermal withdrawal): 23.87 ± 4.35%
SNL rats; 10 mg/kg i.p., thermal withdrawal test
  Sedation: sedated four of the five rats for about one hour
[2]; 3 mg/kg, 15 min
  % Activity (thermal withdrawal): 11.87 ± 7.34%
[2]; 3 mg/kg, 30 min
  % Activity (thermal withdrawal): 3.25 ± 2.71%
[2]; 3 mg/kg, 45 min
  % Activity (thermal withdrawal): 3.62 ± 3.62%
[2]; 3 mg/kg, 60 min
  % Activity (thermal withdrawal): 1.98 ± 1.98%
[2]; 3 mg/kg, 90 min
  % Activity (thermal withdrawal): 2.22 ± 1.61%
[2]; 3 mg/kg, 120 min
  % Activity (thermal withdrawal): 1.39 ± 1.39%
[2]; 6 mg/kg, 15 min
  % Activity (thermal withdrawal): 0.00 ± 0.00%
[2]; 6 mg/kg, 30 min
  % Activity (thermal withdrawal): 0.00 ± 0.00%
[2]; 6 mg/kg, 45 min
  % Activity (thermal withdrawal): 3.98 ± 3.98%
[2]; 6 mg/kg, 60 min
  % Activity (thermal withdrawal): 2.95 ± 2.95%
[2]; 6 mg/kg, 90 min
  % Activity (thermal withdrawal): 1.73 ± 1.73%
[2]; 6 mg/kg, 120 min
  % Activity (thermal withdrawal): 0.41 ± 0.41%
[2]; 10 mg/kg, 15 min
  % Activity (thermal withdrawal): 24.54 ± 19.33%
[2]; 10 mg/kg, 30 min
  % Activity (thermal withdrawal): 22.60 ± 11.64%
[2]; 10 mg/kg, 45 min
  % Activity (thermal withdrawal): 8.03 ± 4.26%
[2]; 10 mg/kg, 60 min
  % Activity (thermal withdrawal): 0.65 ± 0.65%
[2]; 10 mg/kg, 90 min
  % Activity (thermal withdrawal): 0.28 ± 0.28%
[2]; 10 mg/kg, 120 min
  % Activity (thermal withdrawal): 0.02 ± 0.02%
migraine
  Benefit on time to pain relief: failed to show benefit
